In USRE49579E1, “Non-peptidic GAPDH aggregation inhibitor” (University Public Corporation Osaka, priority 2015, dated 2023):
Where two headings read alike, the source gives them in different places. Residues, ends and D or L forms follow the SMILES beside them. No end group written: not given here.

Assays:
purified human GAPDH [1] = molecular target: T1, purified human GAPDH (Homo sapiens, UniProt P04406); test: GAPDH aggregation inhibitory activity (first screening, turbidity at 405 nm); type: biochemical; details: for 1st. Screening Potency Inhibitory activity (%) (50 μM at 48 h) in vitro: 50 μM peptide, 5 μM GAPDH, 37° C.
Method: As the first screening, GAPDH aggregation inhibitory activities, which represents potency, were measured. According to a method described in Patent Document 1, a peptide was added to a solution in which 5 μM purified human GAPDH was dissolved in Buffer G2 so that, the concentration of the peptide was 50 μM, and then incubated at 37° C. for 48 hours. Then the aggregation inhibitory rate of GAPDH was measured using the turbidity (absorbance at 405 nm) of the solution.

PC12 cells = test: Cytotoxicity: viability of PC12 cells in the presence of peptide (second screening A); type: cell-based; details: FIG. 7
Method: (§1) As the second screening, A) the viability of PC12 cells in the presence of a peptide, which represented cytotoxicity, B) effects on the GAPDH enzymatic activity, which represented side effects, and C) effects on amyloid formation, which represented specificity, were each investigated.
(§2) PC12 cells cultured to 80% confluence were cultured at 37° C. for 72 hours in the presence of 50 μM peptide, and the cell viability was measured in accordance with the conventional method.

purified human GAPDH [2] = molecular target: T1, purified human GAPDH; test: Side effects: effect on GAPDH enzymatic activity (second screening B); type: biochemical; details: for 2nd. Screening Side effect Effect on GAPDH Activity (%) in vitro: 10 μM peptide, 0.01 μM GAPDH
Method: as §1
A 10 μM peptide was added to 0.01 μM purified human GAPDH, and the enzymatic activity of GAPDH was measured in accordance with a method described in Patent Document 1.

[3] = Cytotoxicity: viability of PC12 cells in the presence of peptide (second screening A); type: cell-based; details: rat, PC12 cells
Method: as §1, §2

Aβ25-35 = molecular target: T2, Aβ25-35 (Homo sapiens, UniProt P05067); test: Specificity: effect on amyloid formation (second screening C, fluorescence); type: biochemical; details: 25 μM amyloid β, 37° C., 1 hour
T2 construct: Aβ25-35
Method: as §1
A solution containing 25 μM […] was incubated at 37° C. for 1 hour, and formation of amyloid aggregates was evaluated using the fluorescence intensity from the solution in accordance with a method described in Patent Document 1.

Aβ40-treated PC12 cells = test: Cytoprotective effects on Aβ1-40 induced PC12 cell death (third screening); type: cell-based
[4] = system: Aβ1-40 induced PC12 cell death; test: Protective effects on amyloid β induced cell death in the presence of GAPDH-Seeds; type: cell-based; details: GAPDH-Seeds (1%), GAI-17 50 μM, FIG. 2
stroke model mouse = test: Cerebroprotective effects in a stroke model (MCAO); type: in vivo; details: 60 nmol/mouse intraventricular, FIG. 4
Method: To a stroke model mouse, 60 nmol/mouse of a peptide was intraventricularly administered, and the reduction in cerebral infarction volume and the improvement in neurological symptoms after 24 hours were determined. The stroke model mouse was prepared in accordance with a method by of Andrabi et al. (Andrabi et al., Nat Med., 2011, June; 17(6): 692-9). A mouse was maintained under the state of ischemia for 30 minutes, and then perfusion was re-started. The cerebral infarction volume was measured […] after ischemia started. Further, in accordance with the method by Andrabi et al. (supra), a neurological score was determined for neurological symptoms of the mouse to evaluate the improvement in neurological symptoms.

[5] = read-out: IC50 (MEAN ± S.E.) for the GAPDH aggregation inhibitory activity in vitro

T1 sequence (P04406 whole entry): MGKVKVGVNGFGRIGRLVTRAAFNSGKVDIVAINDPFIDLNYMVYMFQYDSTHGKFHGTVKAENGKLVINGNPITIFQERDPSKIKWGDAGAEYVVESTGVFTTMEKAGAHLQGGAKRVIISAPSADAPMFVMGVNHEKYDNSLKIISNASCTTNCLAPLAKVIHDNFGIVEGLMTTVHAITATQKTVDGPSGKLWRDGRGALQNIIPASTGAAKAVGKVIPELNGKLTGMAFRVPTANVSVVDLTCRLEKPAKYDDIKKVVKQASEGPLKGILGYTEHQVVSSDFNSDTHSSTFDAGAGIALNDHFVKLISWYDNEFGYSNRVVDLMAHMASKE

| aggregation inhibitory activity in the first screening, compared with lead compound (purified human GAPDH [1]; FIG. 6) | IC50 (purified human GAPDH [1]; [5]) [nM] | Compound | cytotoxicity in the second screening, compared with lead compound (PC12 cells) | GAPDH enzymatic activity in the second screening (purified human GAPDH [2]; FIG. 7) | IC50 (purified human GAPDH [1]) [nM] | 1st. Screening Potency Inhibitory activity (%) (50 μM at 48 h) in vitro (purified human GAPDH [1]) | viability at 72 h, 50 µM ([3]; 50 μM peptide, 37° C., 72 hours, read-out: 2nd. Screening Cytotoxicity Cell viability (%) in PC12 cells) [%] | 2nd. Screening Side effect Effect on GAPDH Activity (%) in vitro (purified human GAPDH [2]) [%] | 2nd. Screening Specificity Effect on Aβ25-35 amyloidogenesis (%) in vitro (Aβ25-35) [%] | 3rd. Screening Effectiveness Cytoprotection (%) in Aβ40-treated PC12 cells (Aβ40-treated PC12 cells) [%] | viability at 72 h, 50 µM [3] [%] | protective effects on amyloid β40 induced PC12 cell death [4] | cerebral infarction volume (stroke model mouse) | neurological symptoms (stroke model mouse; after 24 hours) |
| --- | --- | --- | --- | --- | --- | --- | --- | --- | --- | --- | --- | --- | --- | --- |
| superior to that of the lead compound | 900 ± 110 | C[C@@H](O)CNC(=O)[C@H](CS)NCCCO [TN-101] | comparable with or smaller than those of the lead compound | uninhibited GAPDH enzymatic activity |  |  |  |  |  |  |  |  |  |  |
|  |  | SNASCTTNAL [GAI-1, SNASCTTNAL, reference compound] |  |  | 50000 ± 200 | 53.2 ± 1.73 | 104 ± 1.37 | 105 ± 1.80 | 103 ± 9.94 | 48.0 ± 3.85 |  |  |  |  |
|  | 1190 ± 150 | C[C@@H](O)[C@H](NC(=O)[C@H](CS)NC(=O)[C@@H](N)CO)C(=O)O [GAI-17, SCT] (H-Ser-Cys-Thr-OH; N-terminus and C-terminus assumed) |  |  |  | 97.7 ± 1.48 |  | 97.9 ± 0.72 | 102 ± 6.39 | 99.4 ± 1.21 | 100 ± 0.76 | protective effects | decrease cerebral infarction volume | improve neurological symptoms |
